Measurements taken from patent publication US20250003952A1, “SENOLYTIC DRUG SCREENING METHOD AND SENOLYTIC DRUG” (KYOTO UNIVERSITY, priority 2021, published 2025).

What was measured:
mice models = settings: Chang et al., 2016, Childs et al.; cited from earlier work
PGAM-Chk1 kinase binding = settings: cancer cells; Mikawa et al., 2020; cited from earlier work
Chk1 kinase [1] = experiment: S280 phosphorylation of Chk1 kinase by Western blot in H1299 cells; type: cell-based; settings: 10 μM for 48 hours
Method: When each inhibitor (U126 and BI-D1870) was administered to cancer cells, PGAM-Chk1 kinase binding was inhibited, and glycolytic metabolism decreased (Mikawa et al., 2020). RSK kinase was already known to directly control the phosphorylation of the S280 residue of Chk1 kinase (Li et al., 2012, Mol Biol Cell 23, 1582-1592). […] Specifically, cancer cell line H1299 cells were treated with the MEK kinase inhibitor (U126) at a concentration of 10 μM for 48 hours. The treated cells were collected, and proteins were extracted and then Western blotted. It was confirmed that the S280 phosphorylation of Chk1 kinase was suppressed although the protein level of Chk1 kinase was not changed. In addition, the present inventors prepared S280A mutants of Chk1 kinase. […] Specifically, PGAM and Chk1 kinase genes tagged with Nano-Bit tags were introduced into IMR90 cells to prepare a cell line capable of stable expression. At this time, three types of Chk1, i.e., wild-type Chk1 and S280A mutant Chk1 or S280D mutant Chk1, were each introduced into the cells. An oncogenic mutated Ras gene was introduced into these cells by retroviral infection to acquire stress senescent cells. The obtained senescent cells were used to measure intracellular luciferase luminescence signals by Nano-Bit for each.

PGAM-Chk1 binding [2] = target: T1, PGAM-Chk1 binding (Homo sapiens, UniProt O14757+P18669); experiment: PGAM-Chk1 binding by anti-Chk1 immunoprecipitation and anti-PGAM Western blotting in Ras-induced senescent IMR90 cells; type: cell-based
T1 construct: endogenous in cells; host or cells: IMR90 human primary fibroblasts made senescent by retroviral oncogenic Ras
T1 sequence (P18669 2-254 limits assumed): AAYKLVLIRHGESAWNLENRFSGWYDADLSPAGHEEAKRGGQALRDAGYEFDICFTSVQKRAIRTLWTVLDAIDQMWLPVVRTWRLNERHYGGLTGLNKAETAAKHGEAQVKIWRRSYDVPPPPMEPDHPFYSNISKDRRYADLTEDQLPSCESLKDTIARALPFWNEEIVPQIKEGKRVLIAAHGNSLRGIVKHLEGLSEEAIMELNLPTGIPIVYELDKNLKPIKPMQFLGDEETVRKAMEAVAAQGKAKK
T1 sequence (O14757 1-476): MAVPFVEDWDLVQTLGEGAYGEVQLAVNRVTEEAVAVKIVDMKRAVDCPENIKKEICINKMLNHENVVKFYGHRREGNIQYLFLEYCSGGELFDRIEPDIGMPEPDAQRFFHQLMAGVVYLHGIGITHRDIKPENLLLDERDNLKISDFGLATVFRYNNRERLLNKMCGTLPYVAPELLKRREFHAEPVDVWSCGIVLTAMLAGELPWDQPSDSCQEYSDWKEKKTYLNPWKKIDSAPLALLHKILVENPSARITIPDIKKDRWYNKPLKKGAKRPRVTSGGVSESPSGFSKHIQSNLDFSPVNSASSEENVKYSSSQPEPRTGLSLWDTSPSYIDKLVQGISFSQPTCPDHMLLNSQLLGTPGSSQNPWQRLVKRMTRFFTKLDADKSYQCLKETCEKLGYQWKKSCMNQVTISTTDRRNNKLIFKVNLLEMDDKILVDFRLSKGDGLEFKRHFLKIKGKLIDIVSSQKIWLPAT
Method: Human primary fibroblasts, IMR90 cells, were obtained from the JCRB Cell Bank. An oncogenic Ras mutation was retrovirally introduced into young cells (within 1 month of continuous culture) of the IMR90 cells to induce cellular senescence. […] After that, these cells were treated with MG132 for 6 hours, and cell lysates were prepared. The obtained cell lysates were immunoprecipitated with an anti-Chk1 antibody. The resulting immunoprecipitate was used for Western blotting with an anti-PGAM antibody to evaluate PGAM-Chk1 binding.
Next, in the same manner as above, IMR90 cells were used to prepare stress-induced senescent cells by introducing an oncogenic mutated Ras gene. The senescent cells were transfected with an RSK1 siRNA (SEQ ID NO: 7) or a control to knock down RSK1. The resulting cells were collected, and proteins were extracted. The resulting protein extract was immunoprecipitated with an anti-Chk1 antibody. The resulting immunoprecipitate was used for Western blotting with an anti-PGAM antibody to evaluate PGAM-Chk1 binding.

p53 = p53 activation (Western blot of p53 and p21) in young IMR90 cells; type: cell-based, human; settings: 20 μM for 48 hours
Source text: After the treatment, proteins were extracted from the cells to carry out Western blotted.

IMR90 cells = experiment: Senolysis / cell death of young and Ras-induced senescent IMR90 cells; type: cell-based, human
Source text: Ras gene with oncogenic mutation was introduced into young cells (within 1 month of continuous culture) of IMR90 cells by retroviral infection to acquire senescent cells. […] The control received only DMSO treatment. Representative images of cells observed under a microscope are shown (FIG. 11).
An oncogenic mutated Ras gene was introduced into young cells (within 1 month of continuous culture) of IMR90 cells by retroviral infection to acquire stress-induced senescent cells. The young cells and the senescent cells were both treated with different concentrations of the RSK kinase inhibitor BI-D1870 for 96 hours to evaluate cell death.
An oncogenic mutated Ras gene was introduced into young cells (within 1 month of continuous culture) of IMR90 cells by retroviral infection to acquire stress-induced senescent cells. The young cells and the senescent cells of IMR90 were both transfected with an RSK1 siRNA (two types of siRNA #1 (SEQ ID NO: 7) or #2 (SEQ ID NO: 8) having different target sequences) or a control to knock down RSK1. Representative images of cells observed under a microscope are shown (upper diagram in FIG. 20).
An oncogenic Ras was introduced into young cells (within 1 month of continuous culture) of IMR90 cells to induce senescent cells (OIS). The young cells and the senescent cells of IMR90 were transfected with two HIF-2α-specific siRNAs (SEQ ID NO: 9 and SEQ ID NO: 10) having different target sequences to knock down HIF-2α.
An oncogenic Ras was introduced into young cells (within 1 month of continuous culture) of IMR90 cells to induce senescent cells (OIS). The young cells and the senescent cells of IMR90 were transfected with a BIM-specific siRNA to knock down BIM.
An oncogenic Ras was introduced into young cells (within 1 month of continuous culture) of IMR90 cells to induce senescent cells (OIS). In the young cells and the senescent cells of IMR90, HIF-2α alone or both HIF-2α and BIM were knocked down by using their respective specific siRNAs (SEQ ID NO: 9, SEQ ID NO: 10), and cell death was confirmed (FIG. 28).
The latter information consists of 12,655 ChIP datasets from 903 antigens (transcription factors and epigenetic regulators).

glycolytic metabolism = experiment: Glycolytic metabolism (glucose consumption, lactate production) in etoposide-induced senescent IMR90 cells; type: cell-based, human; settings: 20 μM or 40 μM for 48 hours
Method: Next, young cells (within 1 month of continuous culture) of the IMR90 cells were treated with 100 μM etoposide for 48 hours to acquire senescent cells. […] After the nutlin treatment, the medium was collected, and glucose consumption was evaluated and lactate production was measured. The lactate level is calculated as a value (μmol/mg/h) obtained by measuring the amount of lactate secreted into the medium per hour (μmol/h) and correcting the same by the total cell protein (mg) and is expressed as a value relative to the actual value on day 0. The glucose consumption is calculated as a value (μmol/mg/h) obtained by measuring the amount of glucose decreased from the medium per hour (μmol/h) and correcting the same by the total cell protein (mg) and is expressed as a value relative to the actual value on day 0. Glucose and lactate were measured by using a Glucose assay kit (BioVision) (upper diagram in FIG. 8) and a Lactate assay kit (BioVision) (lower diagram in FIG. 8), respectively.

PGAM-Chk1 binding [3] = target: T2, PGAM-Chk1 binding (Homo sapiens, UniProt O14757+P18669); experiment: Nano-Bit PGAM-Chk1 binding in cancer cell line H1299; type: cell-based; settings: H1299 cells; 40 μM for 12, 24, and 48 hours
T2 construct: expressed in transfected cells
Source text: PGAM and Chk1 kinase genes tagged with Nano-Bit tags were introduced into the cancer cell line H1299 to prepare a cell line capable of stable expression. […] The treated cells were used to measure intracellular luciferase luminescence signals by Nano-Bit for each.
T2 sequence (P18669 whole entry, one chain of several): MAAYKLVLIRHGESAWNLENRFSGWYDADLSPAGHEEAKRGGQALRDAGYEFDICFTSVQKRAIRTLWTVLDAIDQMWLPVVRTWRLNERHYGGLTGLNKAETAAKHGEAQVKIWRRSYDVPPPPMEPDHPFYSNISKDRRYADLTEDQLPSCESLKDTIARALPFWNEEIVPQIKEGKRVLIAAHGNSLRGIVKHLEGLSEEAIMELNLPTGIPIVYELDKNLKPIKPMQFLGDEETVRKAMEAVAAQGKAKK

BIM gene = BIM gene expression in Ras-induced senescent IMR90 cells; type: cell-based, human; settings: senescent (OIS) IMR90 cells; HIF-2α knockdown by siRNA
Method: An oncogenic Ras was introduced into young cells (within 1 month of continuous culture) of IMR90 cells to induce senescent cells (OIS).
An oncogenic Ras was introduced into young cells (within 1 month of continuous culture) of IMR90 cells to induce senescent cells (OIS). The senescent cells were transfected with an HIF-2α-specific siRNA (SEQ ID NO: 9) to knock down HIF-2α. After that, the expression of the BIM gene, which is an apoptosis-inducing gene, was analyzed (FIG. 26).

Chk1 kinase [4] = experiment: S280 phosphorylation of Chk1 kinase after RSK1 knockdown in senescent IMR90 cells; type: cell-based, human; settings: Ras-induced senescent IMR90 cells; RSK1 knockdown by siRNA

CC1(C)CCC(c2ccc(Cl)cc2)=C(CN2CCN(c3ccc(C(=O)NS(=O)(=O)c4ccc(N[C@H](CCN5CCOCC5)CSc5ccccc5)c(S(=O)(=O)C(F)(F)F)c4)cc3)CC2)C1 [ABT263]
aging-relevant dysfunctions and artherosclerosis (mice models): alleviated

N#CC(=C(/N)Sc1ccccc1N)/C(C#N)=C(/N)Sc1ccccc1N [U126]
PGAM-Chk1 kinase binding (PGAM-Chk1 kinase binding): inhibited
glycolytic metabolism (PGAM-Chk1 kinase binding): decreased
S280 phosphorylation of Chk1 kinase (Chk1 kinase [1]): suppressed
protein level of Chk1 kinase (Chk1 kinase [1]): not changed

COc1ccc(C2=N[C@@H](c3ccc(Cl)cc3)[C@@H](c3ccc(Cl)cc3)N2C(=O)N2CCNC(=O)C2)c(OC(C)C)c1 [nutlin 3a]
PGAM-Chk1 binding (interaction) (PGAM-Chk1 binding [2]; 20 μM or 40 μM for 48 hours, then MG132 6 hours): inhibit PGAM-Chk1 interaction to the same extent
protein level of p21 (p53): markedly increased
protein level of p53 (p53): markedly increased
cell death observed under a microscope (IMR90 cells; young and Ras-induced senescent IMR90 cells, 40 μM for 72 hours): cell death and cell number decrease were observed in both the young cells and the senescent cells
glucose consumption (glycolytic metabolism): suppressed in a dose-dependent manner
lactate production (glycolytic metabolism): suppressed in a dose-dependent manner
luciferase luminescence signal by Nano-Bit (PGAM-Chk1 binding) (PGAM-Chk1 binding [3]): treatment time-dependent decrease

HIF-2α-specific siRNA (SEQ ID NO: 9): HIF-2α-specific siRNA, SEQ ID NO: 9 (CACCUACUGUGAUGACAGA; listed as RNA, chemistry not given here)
expression of the apoptosis-inducing gene BIM (BIM gene): increased
cell death after HIF-2α knockdown (IMR90 cells; young and Ras-induced senescent (OIS) IMR90 cells, siRNA transfection): selective cell death (senolysis)

RSK1 siRNA #1: RSK1 siRNA including the sequence of SEQ ID NO: 7 (CACUGAUUCUGAAGGCGAA; listed as RNA, chemistry not given here)
PGAM-Chk1 binding (PGAM-Chk1 binding [2]; RSK1 knockdown by siRNA): inhibition of PGAM-Chk1
senolysis phenomenon with knockdown of RSK1 (IMR90 cells; young and Ras-induced senescent IMR90 cells, siRNA transfection): young cells are normal, but senescent cells selectively die
S280 phosphorylation of Chk1 kinase (Chk1 kinase [4]): decreased
